Experimental data from US20220213156A1, “Peptides for use in therapy or prophylaxis of Herpesviridae-infections” (priority 2019, published 2022).
Residues, ends and D or L forms follow the SMILES beside them.

Legend:
HCMV TB40/E-ΔUL16-eGFP = test: Infection assay on different cell types (HFF, ARPE-19, THP-1) with TB40E-ΔUL16-EGFP, IE+/DAPI+; format: cell-based, Human Cytomegalovirus; settings: 40 h
Experimental: For the infection assays, the cells were sown in 96-well plates. Human foreskin fibroblasts (HFF) and ARPE-19 cells (Adult Retinal Pigment Epithelial cell line-19) were seeded with 10 000 cells in 200 μl medium per well, macrophages with 20 000 cells in 200 μl medium per well and THP with 50 000 cells in 200 μl per well. The cells were incubated overnight at 37° C. and 5% CO2 and treated the following day. A medium change to P/S-free medium was performed to avoid interaction between the antibiotics used and the peptide sequences. Afterwards the corresponding peptides were added in different concentrations and immediately afterwards the virus, the final volume was 100 μl per well. The virus of the strain TB40/E-ΔUL16-eGFP was used. TB40-ΔUL16-eGFP is a derivative of the strain TB40, in which the majority of the open reading frame UL16 has been replaced by the open reading frame of eGFP, essentially as described in detail for a homologous mutant of strain AD169 (Tischer et al., “Two-step red-mediated recombination for versatile high-efficiency markerless DNA manipulation in Escherichia coli”, Biotechniques, (2006), 40(2):191-7). […] The required volume of the virus stock was calculated using the titer according to the following formula: […]

clinical HCMV isolates = test: Infection assays with clinical isolates on HFF; format: cell-based, Human Cytomegalovirus
Experimental: The antiviral activity of HD5 (1-9) (SEQ ID No. 1) in concentrations from 1.56 μM to 100 μM against infection with clinical HCMV isolates was investigated on HFF. In addition to the laboratory-adapted strain TB40/E-ΔUL16-eGFP, which served as reference strain, a breast milk-derived strain, an amniotic fluid-isolated strain and a multidrug-resistant viral isolate from leukocytes of a recipient after the third stem cell transplantation were used. The therapy-naïve strain from cell free milk whey (H1241-2016) was derived from a […] of a preterm infant 10 weeks postpartum during end of viral reactivation. The amnion fluid derived virus strain (H2497-2011) was isolated following termination of pregnancy based on severe fetal brain damage. The multidrug resistant CMV isolate (H815-2006) is already described (Gohring et al., “Dynamics of coexisting HCMV-UL97 and UL54 drug-resistance associated mutations in patients after haematopoietic cell transplantation”, J. Clin. Virol. 57(1):43-49, 2013). […] All viral isolates were primarily HFF-adapted and propagated in vitro with at least 10 passages to get TCID values of cell free viral supernatants of […].
Next, a peptide of the invention, i.e. HD5 (1-9) was tested on clinical HCMV isolates. 10 000 HFF were seeded into each well of a 96-well-plate containing 200 μl of medium. Cells were incubated overnight at 37° C. and 5% CO2. Next day medium was changed to medium without P/S. Cells were infected with different clinical HCMV isolates (MOI 0,2) and treated with peptide in concentrations from 1.56 μM to 100 μM in a volume of 100 μl. After 40 h of incubation cells were fixed with 2% PFA in PBS and permeabilised with 90% methanol in H2O. Afterwards an antibody staining for IE-antigens was performed and nuclei were stained with DAPI. Infection rate was analysed (IE+/DAPI+, normalized to medium control, n=1).
HCMV TB40/E is a lab-adapted strain that might differ from primary HCMV isolates in terms of cellular tropism, infectivity or cytopathic properties. […]

C[C@H](N)C(=O)N[C@H](C(=O)N[C@@H](CS)C(=O)N[C@@H](Cc1ccc(O)cc1)C(=O)N[C@@H](CS)C(=O)N[C@@H](CCCNC(=N)N)C(=O)N[C@H](C(=O)NCC(=O)N[C@@H](CCCNC(=N)N)C(=O)O)[C@@H](C)O)[C@@H](C)O [HD5 (1-9), ATCYCRTGR] (H-ATCYCRTGR-OH; N-terminus and C-terminus assumed)
concentration from which HCMV infection is inhibited (HCMV TB40/E-ΔUL16-eGFP): ≥ 50 µM | inhibition of HCMV infection (clinical HCMV isolates; 100 μM in HFF, MOI 0.2 and 0.1): inhibited HCMV infection efficiently | concentration at which inhibition of infection with all clinical isolates starts (clinical HCMV isolates; HFF, 40 h): ≥ 50 µM | inhibition of infection with primary isolates (amniotic fluid, breast milk, multiresistant leukocyte isolate) (clinical HCMV isolates; HFF, MOI 0.2 and 0.1): sensitive towards inhibition
